The melting point is the temperature, or range, at which the solid turns liquid.

The structures appear in SMILES notation.

In the case of `COc1cc2ncnc(N3CCN(C(=S)Nc4ccc(Oc5ccccc5)cc4)CC3)c2cc1OC` [Compound 61, 4-(6,7-Dimethoxy-4-quinazolinyl)-N-(4-phenoxyphenyl)-1-piperazinethiocarboxamide], the melting point fell in the range of 242 to 243 °C.

With `COc1cc2ncnc(N3CCN(C(=S)Nc4ccc([N+](=O)[O-])cc4)CC3)c2cc1OC` [Compound 80, 4-(6,7-Dimethoxy-4-quinazolinyl)-N-(4-nitrophenyl)-1-piperazinethiocarboxamide], the melting point lay in the range of 221 to 224 °C.

In turn, `S=C(NCc1ccc(Cl)cc1)N1CCN(c2ccnc3ccc(Cl)cc23)CC1` [Compound 401, N-(4-Chlorobenzyl)-4-(6-chloro-4-quinolyl)-1-piperazinethiocarboxamide] returned a melting point of 89 to 90 °C.

As for `COc1cc2ncnc(N3CCN(C(=S)NC(=O)c4ccc([N+](=O)[O-])cc4)CC3)c2cc1OC` [Compound 232, 4-(6,7-Dimethoxy-4-quinazolinyl)-N-(4-nitrobenzoyl)-1-piperazinethiocarboxamide], the melting point was 103 to 105 °C.

Regarding `CCOc1ccc(CNC(=O)N2CCN(c3ncnc4cc(OC)c(OC)cc34)CC2)cc1` [Compound 200, 4-(6,7-Dimethoxy-4-quinazolinyl)-N-(4-ethoxybenzyl)-1-piperazinecarboxamide], the melting point lay within 176 to 177 °C.

Take `S=C(NCc1cccnc1)N1CCN(c2ncnc3cc4c(cc23)OCCO4)CC1` [Compound 375, 4-(6,7-Ethylenedioxy-4-quinazolinyl)-N-(3-picolyl)-1-piperazinethiocarboxamide]: the melting point lay in the range of 110 to 113 °C.

Turning to `COc1cc2ncnc(N3CCN(C(=O)Nc4ccccc4Cl)CC3)c2cc1OC` [Compound 38, N-(2-Chlorophenyl)-4-(6,7-dimethoxy-4-quinazolinyl)-1-piperazinecarboxamide], the melting point was 186 to 187 °C.

For `CCC[C@H]1CC[C@H](c2ccc(NC(=S)N3CCN(c4ncnc5cc(OC)c(OC)cc45)CC3)cc2)CC1` [Compound 169, 4-(6,7-Dimethoxy-4-quinazolinyl)-N-[trans-4-(4-propylcyclohexyl)phenyl]-1-piperazinethiocarboxamide], the melting point lay within 106 to 109 °C.

The compound `CC(C)c1ccc(NC(=O)N2CCN(c3ncnc4c(I)cc(I)cc34)CC2)cc1` [Compound 379, 4-(6,8-Diiodo-4-quinazolinyl)-N-(4-isopropylphenyl)-1-piperazinecarboxamide] came in with a melting point of 267 to 269 °C.

For the compound `COc1cc2ncnc(N3CCN(C(=O)NS(=O)(=O)c4ccccc4)CC3)c2cc1OC` [Compound 5, N-Benzenesulfonyl-4-(6,7-dimethoxy-4-quinazolinyl)-1-piperazinecarboxamide], the melting point was 98 to 100 °C.

`COc1cc2ncnc(N3CCN(C(=S)Nc4ccc(S(N)(=O)=O)cc4)CC3)c2cc1OC` [Compound 93, 4-(6,7-Dimethoxy-4-quinazolinyl)-N-(4-sulfamoylphenyl)-1-piperazinethiocarboxamide]: the melting point lay within 172 to 180 °C.

The compound `COc1cc2ncnc(N3CCN(C(=S)N[C@H](C)c4ccccc4)CC3)c2cc1OC` [Compound 130, (R)-4-(6,7-Dimethoxy-4-quinazolinyl)-N-(1-phenylethyl)-1-piperazinethiocarboxamide] returned a melting point of 99 to 101 °C.

As to `COc1cc2ncnc(N3CCN(C(=O)Nc4ccc(C)c(C)c4)CC3)c2cc1OC` [Compound 30, 4-(6,7-Dimethoxy-4-quinazolinyl)-N-(3,4-dimethylphenyl)-1-piperazinecarboxamide], the melting point was in the range of 202 to 203 °C.

As for `CCOc1cc2c(N3CCN(C(=O)Nc4ccc(Oc5ccccc5)cc4)CC3)ncnc2cc1OC` [Compound 346, 4-(6-Ethoxy-7-methoxy-4-quinazolinyl)-N-(4-phenoxyphenyl)-1-piperazinecarboxamide], the melting point is 213 to 214 °C.

In turn, `COc1cc2ncnc(N3CCN(C(=O)Nc4ccc(C(=O)C(F)(F)F)cc4)CC3)c2cc1OC` [Compound 243, 4-(6,7-Dimethoxy-4-quinazolinyl)-N-(4-trifluoroacetylphenyl)-1-piperazinecarboxamide] gave a melting point of 144 to 146 °C.

`Fc1cc2ncnc(N3CCN(C(=S)NCc4cccnc4)CC3)c2cc1F` [Compound 331, 4-(6,7-Difluoro-4-quinazolinyl)-N-(3-picolyl)-1-piperazinethiocarboxamide]: the melting point was 177 to 178 °C.

`S=C(NCc1ccccc1)N1CCN(c2ncnc3cc4c(cc23)OCO4)CC1` [Compound 370, N-Benzyl-4-(6,7-methylenedioxy-4-quinazolinyl)-1-piperazinethiocarboxamide] came in with a melting point of 176 to 177 °C.

`COc1cc2ncnc(N3CCN(C(=O)Nc4ccc(OC(F)F)cc4)CC3)c2cc1OC` [Compound 158, N-(4-Difluoromethoxyphenyl)-4-(6,7-dimethoxy-4-quinazolinyl)-1-piperazinecarboxamide] had a melting point of 190 to 192 °C.

For `COc1cc2ncnc(N3CCN(C(=S)NCc4ccc(Cl)cc4)CC3)c2cc1OC` [Compound 42, N-(4-Chlorobenzyl)-4-(6,7-dimethoxy-4-quinazolinyl)-1-piperazinethiocarboxamide], the melting point was in the range of 218 to 220 °C.

Compound `O=C(Nc1ccc(Oc2ccccc2)cc1)N1CCN(c2ncnc3cc(F)c(F)cc23)CC1` [Compound 329, 4-(6,7-Difluoro-4-quinazolinyl)-N-(4-phenoxyphenyl)-1-piperazinecarboxamide] came in with a melting point of 177 to 178 °C.

For the compound `CC(C)c1ccc(NC(=O)N2CCN(c3ncnc4ccc(Cl)cc34)CC2)cc1` [Compound 300, 4-(6-Chloro-4-quinazolinyl)-N-(4-isopropylphenyl)-1-piperazinecarboxamide], the melting point was 192 to 193 °C.

`O=C(Nc1ccc(Oc2ccccc2)cc1)N1CCN(c2ccnc3c(C(F)(F)F)cccc23)CC1` [Compound 411, N-(4-Phenoxyphenyl)-4-(8-trifluoromethyl-4-quinolyl)-1-piperazinecarboxamide] gave a melting point of 214 to 215 °C.

On to `COc1cc2ncnc(N3CCN(C(=O)Nc4ccc([N+](=O)[O-])c([N+](=O)[O-])c4)CC3)c2cc1OC`, for which the melting point is 273 to 274 °C.

`COc1cc2ncnc(N3CCN(C(=O)Nc4ccc(SC)cc4)CC3)c2cc1OC` [Compound 69, 4-(6,7-dimethoxy-4-quinazolinyl)-N-(4-methylthiophenyl)-1-piperazinecarboxamide]: the melting point was 231 to 233 °C.

`COc1cc2ncnc(N3CCN(C(=O)Nc4cc(Cl)cc(Cl)c4)CC3)c2cc1OC` [Compound 55, N-(3,5-Dichlorophenyl)-4-(6,7-dimethoxy-4-quinazolinyl)-1-piperazinecarboxamide] showed a melting point of 139 to 140 °C.

In turn, `Cc1cccc2ncnc(N3CCN(C(=O)Nc4ccc(Oc5ccccc5)cc4)CC3)c12` [Compound 287, 4-(5-Methyl-4-quinazolinyl)-N-(4-phenoxyphenyl)-1-piperazinecarboxamide] yielded a melting point of 187 to 188 °C.

`CCOc1cc2c(N3CCN(C(=S)NCc4cccnc4)CC3)ncnc2cc1OC` [Compound 349, 4-(6-Ethoxy-7-methoxy-4-quinazolinyl)-N-(3-picolyl)-1-piperazinethiocarboxamide]: the melting point was in the range of 208 to 209 °C.

For the compound `O=[N+]([O-])c1cc2c(N3CCN(C(=S)NCc4ccccc4)CC3)ncnc2cc1Cl` [Compound 358, N-Benzyl-4-(7-chloro-6-nitro-4-quinazolinyl)-1-piperazinethiocarboxamide], the melting point lay in the range of 93 to 95 °C.

`CCOc1cc2ncnc(N3CCN(C(=S)NCc4cccnc4)CC3)c2cc1OCC` [Compound 354, 4-(6,7-Diethoxy-4-quinazolinyl)-N-(3-picolyl)-1-piperazinethiocarboxamide] registered a melting point of 90 to 92 °C.

Turning to `COc1cc2ncnc(N3CCN(C(=S)Nc4ccc(Sc5ccc([N+](=O)[O-])cc5)cc4)CC3)c2cc1OC` [Compound 70, 4-(6,7-Dimethoxy-4-quinazolinyl)-N-[4-(4-nitrophenylthio)phenyl]-1-piperazinethiocarboxamide], the melting point is 144 to 146 °C.

Consider `CCc1ccc(NC(=O)N2CCN(c3ncnc4cc(OC)c(OC)cc34)CC2)cc1` [Compound 18, N-(4-Ethylphenyl)-4-(6,7-Dimethoxy-4-quinazolinyl)-1-piperazinecarboxamide], for which the melting point is 251 to 252 °C.

For the compound `COc1cc2ncnc(N3CCN(C(=S)NCc4ccccc4)CC3)c2cc1OS(C)(=O)=O` [Compound 351, N-Benzyl-4-(6-mesyloxy-7-methoxy-4-quinazolinyl)-1-piperazinethiocarboxamide], the melting point was 76 to 80 °C.

In turn, `COc1cc2ncnc(N3CCN(C(=S)NC4CCOC4=O)CC3)c2cc1OC` (stereo not shown) [Compound 279, 4-(6,7-Dimethoxy-4-quinazolinyl)-N-(2,3,4,5-tetrahydro-2-oxo-3-furyl)-1-piperazinethiocarboxamide] came in with a melting point of 147 to 148 °C.

The compound `COc1cc2ncnc(N3CCN(C(=O)Nc4c(C(C)C)cccc4C(C)C)CC3)c2cc1OC` [Compound 31, N-(2,6-Diisopropylphenyl)-4-(6,7-dimethoxy-4-quinazolinyl)-1-piperazinecarboxamide] came in with a melting point of 280 to 282 °C.

`COc1cc2c(N3CCN(C(=O)Nc4ccc([N+](=O)[O-])cc4)CC3)ncnc2c(OC)c1OC` [Compound 107, N-(4-Nitrophenyl)-4-(6,7,8-trimethoxy-4-quinazolinyl)-1-piperazinecarboxamide] came in with a melting point of 197 to 199 °C.

For `COc1cc2ncnc(N3CCN(C(=S)Nc4cc(O)nc(O)n4)CC3)c2cc1OC` [Compound 277, N-(2,6-Dihydroxy-4-pyrimidinyl)-4-(6,7-dimethoxy-4-quinazolinyl)-1-piperazinethiocarboxamide], the melting point is 283 to 285 °C.

Turning to `CCn1nnc2cc3c(N4CCN(C(=O)Nc5ccc(Oc6ccccc6)cc5)CC4)ncnc3cc21` [Compound 124, 4-(3-Ethyl-3H-1,2,3-triazolo[4,5-g]quinazolin-8-yl)-N-(4-phenoxyphenyl)-1-piperazinecarboxamide], the melting point lay within 167 to 168 °C.

For the origin of these results see patent US6472391B2, “Nitrogen-containing heterocyclic compounds” (Millennium Pharmaceuticals, Inc., priority 1996, dated 2002).
